[invAb] = inverted abasic unit; m = 2'-O-methyl; r = 2'-OH (RNA); f = 2'-fluoro
Test system: ICAM-1 mRNA
Experiment: ICAM-1 mRNA knock-down in transfected Calu-1 cells (Taqman RT-PCR)
Format: cell-based, human
Conditions: Calu-1 cells, 10 nM siNA, 24 hrs post-transfection, mean ± S.D., relative to non-targeting control
Procedure: Calu-1 (human; ATCC cat# HTB-54): Cells were cultured at 37° C. in the presence of 5% CO2 and grown in McCoy's 5a medium supplemented with fetal bovine serum at a final concentration of 10% and 100 μg/mL of streptomycin and 100 U/mL penicillin.
All transfections were performed using RNAiMax (Invitrogen Cat# 13778-150) as per the manufacturer's instructions.
Calu-1 cells were plated in all wells of a tissue-culture treated, 96-well plate at final counts of 5,000 cells/well in 100 μL of appropriate culture media. Cells were cultured for 24 hours after plating at 37° C. in the presence of 5% CO2.
After 24 hours, complexes containing siNA and RNAiMax were created as follows. A solution of RNAiMax diluted 33-fold in OPTI-MEM was prepared. In parallel, solutions of the siNAs for testing were prepared to a final concentration of 120 nM in OPTI-MEM. After incubation of RNAiMax/OPTI-MEM solution at room temperature for 5 min, an equal volume of the siNA solution and the RNAiMax solution were added together for each of the siNAs. […] This solution was incubated at room temperature for 20 minutes. After incubation, 20 uL of the solution was added to each of the relevant wells. The final concentration of siNA in each well was 10 nM and the final volume of RNAiMax in each well was 0.3 uL.
The time of incubation with the RNAiMax-siNA complexes was 24 hours, unless otherwise indicated. There was no change in media between the transfection and harvesting of the cells unless otherwise indicated.
Dose response curves were carried out in a similar fashion in 96-well plates, while maintaining a constant amount of RNAiMax in each transfection.
RNA was extracted from a 96-well plate using the TaqMan® Gene Expression Cells-to-CT™ Kit (Cat# 4399002) with a modified protocol. Briefly, a 60 uL (1 plate) or 110 uL (2 plates) of the Lysis Solution with DNase I was dispensed into each well of the Lysis Buffer Plate (twin.tec full skirt plate). The lysis buffer and stop plates were stored at 4° C. until the cells were washed.
The plate was spun at 1100 rpm for 5 minutes. The culture medium was aspirated and discarded from the wells of the culture plate. The lysis was performed automatically using a BioMek FX instrument and method. After the Biomek method was completed, the lysis plate was incubated for 2 min. at room temperature. The lysis plate can be stored for 2 hours at 4° C., or at −20° C. or −80° C. for two months.
Each well of the reverse transcription plate required 10 uL of 2× reverse transcriptase Buffer, 1 uL of 20× reverse transcription enzyme and 2 uL of nuclease-free water. The reverse transcription master mix was prepared by mixing 2× reverse transcription buffer, 20× reverse transcription enzyme mix, and nuclease-free water. 13 uL of the reverse transcription master mix was dispensed into each well of the reverse transcription plate (semi-skirted). A separate reverse transcription plate was prepared for each cell plate. The plate was loaded onto a Biomek NX or Biomek FX Dual-96 and the Biomek method was run. The program is programmed to automatically added 7 uL of lysate from the cell lysis procedure described above into each well of the reverse transcription plate. The plate is sealed and spun on a centrifuge (1000 rpm for 30 seconds) to settle the contents to the bottom of the reverse transcription plate. The plate is placed in a thermocycler at 37° C. for 60 min, 95° C. for 5 min, and 4° C. until the plate is removed from the thermocycler. Upon removal, if not used immediately, the plate was frozen at −20° C.
A series of probes and primers were used to detect the various mRNA transcripts of the genes of ICAM-1 and ICAM-2 in human cell lines (see Table 2). All the Taqman probes and primers for the experiments here-in described were supplied as pre-validated sets by Applied Biosystems, Inc., (see Table 2). The assays were performed on an ABI 7900 instrument, according to the manufacturer's instructions. […]

Substance	% KD Human [%]
29281-DC: siNA duplex, ICAM-1 target site 1650 (h); sense B cAGuGAcuGucAcucGAGA TTB; antisense UCUcGAGuGAcAGucAcuGUU (sense CAGUGACUGUCACUCGAGATT; antisense UCUCGAGUGACAGUCACUGUU; sense: DNA at AGT, 2'-fluoro at CU, [invAb] at 5' end, 3' end, backbone not given here; antisense: sugars from the 5' end rrrfmmmfmmfmmffmffmmm, backbone not given here)	45 ± 21
48720-DC: siNA duplex, ICAM-1 target site 1609 (h); sense B GuGucuAAAGGAuGGcAcu TTB; antisense AGUGccAuccuuuAGAcAcUU (sense GUGUCUAAAGGAUGGCACUTT; antisense AGUGCCAUCCUUUAGACACUU; sense: DNA at AGT, 2'-fluoro at CU, [invAb] at 5' end, 3' end, backbone not given here; antisense: sugars from the 5' end rrrmffmffffffmmmfmfmm, backbone not given here)	48 ± 20
48707-DC: siNA duplex, ICAM-1 target site 258 (m); sense B AcucAGuGGcuGAAAGAuG TTB; antisense CAUcuuucAGccAcuGAGuUU (sense ACUCAGUGGCUGAAAGAUGTT; antisense CAUCUUUCAGCCACUGAGUUU; sense: DNA at AGT, 2'-fluoro at CU, [invAb] at 5' end, 3' end, backbone not given here; antisense: sugars from the 5' end rrrfffffmmffmffmmmfmm, backbone not given here)	46 ± 17
48726-DC: siNA duplex, ICAM-1 target site 1217 (h); sense B GAGAcAcuGcAGAcAGuGA TTB; antisense UCAcuGucuGcAGuGucucUU (sense GAGACACUGCAGACAGUGATT; antisense UCACUGUCUGCAGUGUCUCUU; sense: DNA at AGT, 2'-fluoro at CU, [invAb] at 5' end, 3' end, backbone not given here; antisense: sugars from the 5' end rrrffmfffmfmmfmffffmm, backbone not given here)	64 ± 16
48713-DC: siNA duplex, ICAM-1 target site 709 (m); sense B GGAcuuucGAucuuccAGc TTB; antisense GCUGGAAGAucGAAAGuccUU (sense GGACUUUCGAUCUUCCAGCTT; antisense GCUGGAAGAUCGAAAGUCCUU; sense: DNA at AGT, 2'-fluoro at CU, [invAb] at 5' end, 3' end, backbone not given here; antisense: sugars from the 5' end rrrmmmmmmffmmmmmfffmm, backbone not given here)	36 ± 17
29292-DC: siNA duplex, ICAM-1 target site 863 (h); sense B GccAAuuucucGuGccGcA TTB; antisense UGCGGcAcGAGAAAuuGGcUU (sense GCCAAUUUCUCGUGCCGCATT; antisense UGCGGCACGAGAAAUUGGCUU; sense: DNA at AGT, 2'-fluoro at CU, [invAb] at 5' end, 3' end, backbone not given here; antisense: sugars from the 5' end rrrmmfmfmmmmmmffmmfmm, backbone not given here)	76 ± 3
48714-DC: siNA duplex, ICAM-1 target site 1089 (m); sense B GGGucGAAGGuGGuucuuc TTB; antisense GAAGAAccAccuucGAcccUU (sense GGGUCGAAGGUGGUUCUUCTT; antisense GAAGAACCACCUUCGACCCUU; sense: DNA at AGT, 2'-fluoro at CU, [invAb] at 5' end, 3' end, backbone not given here; antisense: sugars from the 5' end rrrmmmffmfffffmmfffmm, backbone not given here)	48 ± 22
48719-DC: siNA duplex, ICAM-1 target site 1230 (h); sense B cAGuGAccAucuAcAGcuu TTB; antisense AAGcuGuAGAuGGucAcuGUU (sense CAGUGACCAUCUACAGCUUTT; antisense AAGCUGUAGAUGGUCACUGUU; sense: DNA at AGT, 2'-fluoro at CU, [invAb] at 5' end, 3' end, backbone not given here; antisense: sugars from the 5' end rrrffmfmmmfmmffmffmmm, backbone not given here)	71 ± 9
48710-DC: siNA duplex, ICAM-1 target site 1574 (m); sense B ccucGuGAuGGcAGccucu TTB; antisense AGAGGcuGccAucAcGAGGUU (sense CCUCGUGAUGGCAGCCUCUTT; antisense AGAGGCUGCCAUCACGAGGUU; sense: DNA at AGT, 2'-fluoro at CU, [invAb] at 5' end, 3' end, backbone not given here; antisense: sugars from the 5' end rrrmmffmffmffmfmmmmmm, backbone not given here)	25 ± 5
29291-DC: siNA duplex, ICAM-1 target site 2120 (h); sense B GAucuGuAGucAcAuGAcu TTB; antisense AGUcAuGuGAcuAcAGAucUU (sense GAUCUGUAGUCACAUGACUTT; antisense AGUCAUGUGACUACAGAUCUU; sense: DNA at AGT, 2'-fluoro at CU, [invAb] at 5' end, 3' end, backbone not given here; antisense: sugars from the 5' end rrrfmfmfmmffmfmmmffmm, backbone not given here)	84 ± 7
48702-DC: siNA duplex, ICAM-1 target site 990 (m); sense B AccuuAAcAGucuAcAAcu TTB; antisense AGUuGuAGAcuGuuAAGGuUU (sense ACCUUAACAGUCUACAACUTT; antisense AGUUGUAGACUGUUAAGGUUU; sense: DNA at AGT, 2'-fluoro at CU, [invAb] at 5' end, 3' end, backbone not given here; antisense: sugars from the 5' end rrrfmfmmmffmffmmmmfmm, backbone not given here)	19 ± 6
48704-DC: siNA duplex, ICAM-1 target site 395 (m); sense B cGuGuAuucGuuuccGGAG TTB; antisense CUCcGGAAAcGAAuAcAcGUU (sense CGUGUAUUCGUUUCCGGAGTT; antisense CUCCGGAAACGAAUACACGUU; sense: DNA at AGT, 2'-fluoro at CU, [invAb] at 5' end, 3' end, backbone not given here; antisense: sugars from the 5' end rrrfmmmmmfmmmfmfmfmmm, backbone not given here)	33 ± 22
48698-DC: siNA duplex, ICAM-1 target site 1611 (m); sense B AGAAAGAucAGGAuAuAcA TTB; antisense UGUAuAuccuGAucuuucuUU (sense AGAAAGAUCAGGAUAUACATT; antisense UGUAUAUCCUGAUCUUUCUUU; sense: DNA at AGT, 2'-fluoro at CU, [invAb] at 5' end, 3' end, backbone not given here; antisense: sugars from the 5' end rrrmfmffffmmfffffffmm, backbone not given here)	34 ± 6
